Assay results: patent US9375004B2 (Bayer Intellectual Property GmbH, priority 2010, dated 2016)
Where two headings read alike, the source gives them in different places.

What was measured:
[1] = test system: Uromyces appendiculatus; conditions: 100 ppm, beans, preventive, evaluated 10 days after inoculation
[2] = test system: Fusarium nivale (var. majus); experiment: Fusarium nivale (var. majus)-test (wheat)/preventive; conditions: for Efficacy: preventive, evaluated 5 days after inoculation
Procedure: Fusarium Nivale (Var. Majus)-Test (Wheat)/Preventive
Solvent: 49 parts by weight of N,N-dimethylacetamide
(§1) Emulsifier: 1 part by weight of alkylaryl polyglycol ether
After the spray coating has been dried, the plants are slightly injured by using a sandblast and afterwards they are sprayed with a conidia suspension of Fusarium nivale (var. majus).
The plants are placed in the greenhouse under a translucent incubation cabinet at a temperature of approximately 10° C. and a relative atmospheric humidity of approximately 100%.
The test is evaluated 5 days after the inoculation.

[3] = test system: Sphaerotheca fuliginea; experiment: Sphaerotheca test (cucumber)/preventive; type: in vivo; conditions: 500 ppm, preventive, evaluated 7 days after inoculation
[4] = test system: Phakopsora pachyrhizi; experiment: Phakopsora test (soybeans)/protective; type: in vivo; conditions: 250 ppm, protective, evaluated 11 days after inoculation
[5] = test system: Botrytis cinerea; experiment: Botrytis test (beans)/preventive; conditions: 100 ppm, preventive, lesion size 2 days after inoculation
Procedure: Botrytis Test (Beans)/Preventive
(§2) Solvent: 24.5 parts by weight of acetone • 24.5 parts by weight of N,N-dimethylformamide
as §1
After the spray coating has dried on, 2 small pieces of agar covered with growth of Botrytis cinerea are placed on each leaf. The inoculated plants are placed in a darkened chamber at 20° C. and a relative atmospheric humidity of 100%.
2 days after the inoculation, the size of the lesions on the leaves is evaluated.

[6] = test system: Alternaria solani; experiment: Alternaria test (tomato)/preventive; type: in vivo; conditions: 500 ppm, preventive, evaluated 7 days after inoculation
[7] = test system: Pyrenophora teres; experiment: Pyrenophora teres-test (barley)/preventive; type: in vivo; conditions: 500 ppm, preventive, evaluated 8 days after inoculation
[8] = test system: Puccinia triticina; experiment: Puccinia triticina-test (wheat)/preventive; type: in vivo; conditions: 500 ppm, preventive, evaluated 8 days after inoculation
[9] = test system: Septoria tritici; experiment: Septoria tritici-test (wheat)/preventive; type: in vivo; conditions: 500 ppm, preventive, evaluated 21 days after inoculation
[10] = test system: Venturia inaequalis; experiment: Venturia test (apples)/preventive; conditions: 100 ppm, preventive, evaluated 10 days after inoculation
Procedure: Venturia Test (Apples)/Preventive
as §2, §1
After the spray coating has dried on, the plants are inoculated with an aqueous conidia suspension of the causal agent of apple scab (Venturia inaequalis) and then remain for 1 day in an incubation cabinet at approximately 20° C. and a relative atmospheric humidity of 100%.
The plants are then placed in a greenhouse at approximately 21° C. and a relative atmospheric humidity of approximately 90%.
The test is evaluated 10 days after the inoculation.

[11] = test system: Pyricularia oryzae; type: in vivo
[12] = test system: Rhizoctonia solani; experiment: Rhizoctonia test (rice)/protective; type: in vivo; conditions: 250 ppm, protective, evaluated 4 days after inoculation
Procedure: Rhizoctonia Test (Rice)/Protective
Solvent: 28.5 parts by weight of acetone
Emulsifier: 1.5 part by weight of alkylaryl polyglycol ether
1 day after the treatment, the plants are inoculated with hyphae of Rhizoctonia solani.
Evaluation is carried out 4 days after the inoculation.

[13] = logP by HPLC on reversed-phase column (EEC Directive 79/831 Annex V.A8); conditions: HPLC on reversed-phase column (C 18), EEC Directive 79/831 Annex V.A8
[14] = test system: Cochliobolus miyabeanus; experiment: Cochliobolus test (rice)/protective; type: in vivo; conditions: 250 ppm, protective, evaluated 4 days after inoculation

CC1CC(C)(C)c2cccc(NC(=O)c3c(C(F)F)nn(C)c3F)c21 (racemic) [Example 64]
Efficacy [1]: 100% | Efficacy ([2]; 500 ppm): 75% | Efficacy [3]: 100% | Efficacy [4]: 97% | Efficacy [5]: 95% | Efficacy [6]: 95% | Efficacy [7]: 100% | Efficacy [8]: 100% | Efficacy [9]: 100% | Efficacy [10]: 99%

Cn1nc(C(F)F)c(C(=O)Nc2ccccc2C2CC2C2CC2)c1Cl (single isomer, unassigned) [Example 47]
Efficacy [1]: 100% | Efficacy ([11]; in vivo): 90% | Efficacy [12]: 100% | Efficacy ([2]; 500 ppm, listed as 47 from this invention): 86% | Efficacy [4]: 98% | logP [13]: 3.76 | Efficacy [7]: 100% | Efficacy [8]: 100% | Efficacy [10]: 100%

Cn1nc(C(F)F)c(C(=O)Nc2ccccc2C2CC2C2CC2)c1Cl (single isomer, unassigned) [Example 48]
Efficacy [1]: 100% | Efficacy [12]: 98% | Efficacy ([2]; 500 ppm, listed as 48 from this invention): 86% | Efficacy [4]: 99% | logP [13]: 3.85 | Efficacy [7]: 86% | Efficacy [8]: 100% | Efficacy [10]: 100%

Cn1cc(C(=O)Nc2ccc(F)cc2-c2ccc(Cl)c(Cl)c2)c(C(F)F)n1 [11 from WO-2003/070705, N-(3′,4′-dichloro-5-fluorobiphenyl-2-yl)-3-(difluoromethyl)-1-methyl-1H-pyrazole-4-carboxamide, reference compound]
Efficacy ([11]; 100 ppm, rice, protective, evaluated 5 days after inoculation): 20% | Efficacy ([11]; 250 ppm, rice, protective, evaluated 5 days after inoculation): 80% | protection ([11]; dose of 100 ppm and 250 ppm of active ingredient, rice): poor (less than 20%) protection to good (at least 70%) protection

CC(C)CCc1ccccc1NC(=O)c1c(C(F)F)nn(C)c1F [Example 7]
Efficacy ([11]; in vivo): 97% | Efficacy [12]: 100% | Efficacy [6]: 95% | logP [13]: 3.60 | Efficacy [7]: 100% | Efficacy [8]: 100% | Efficacy [9]: 88% | Efficacy [14]: 80%

CC(C)CC(C)c1ccccc1NC(=O)c1c(C(F)F)nn(C)c1F (stereo not shown) [Example 11]
Efficacy [1]: 100% | Efficacy [12]: 100% | Efficacy [3]: 100% | Efficacy [5]: 95% | Efficacy [6]: 100% | logP [13]: 3.85 | Efficacy [7]: 100% | Efficacy [8]: 100% | Efficacy [9]: 89% | Efficacy [10]: 100%

CCCCCc1ccccc1NC(=O)c1c(C(F)F)nn(C)c1Cl [Example 12]
Efficacy [1]: 100% | Efficacy ([11]; in vivo): 93% | Efficacy [12]: 100% | Efficacy ([2]; 250 ppm): 71% | Efficacy ([2]; 500 ppm): 86% | protection ([2]; dose of 250 ppm and 500 ppm of active ingredient): at least 70% | Efficacy [5]: 99% | logP [13]: 4.01 | Efficacy [7]: 100% | Efficacy [8]: 100% | Efficacy [9]: 71% | Efficacy [10]: 100%

CC(CC(C)(C)C)c1ccccc1NC(=O)c1c(C(F)F)nn(C)c1Cl (stereo not shown) [Example 22]
Efficacy [1]: 100% | Efficacy ([11]; in vivo): 80% | Efficacy [12]: 100% | Efficacy ([2]; 500 ppm): 86% | Efficacy [5]: 100% | logP [13]: 4.31 | Efficacy [7]: 100% | Efficacy [8]: 100% | Efficacy [10]: 100%

Cn1nc(C(F)F)c(C(=O)Nc2ccccc2CC[Si](C)(C)C)c1Cl [Example 24]
Efficacy [1]: 100% | Efficacy ([11]; in vivo): 98% | Efficacy [12]: 100% | Efficacy ([2]; 500 ppm): 86% | Efficacy [5]: 78% | logP [13]: 4.36 | Efficacy [7]: 86% | Efficacy [8]: 100% | Efficacy [10]: 100%

Cn1nc(C(F)F)c(C(=O)Nc2ccccc2OC(F)(F)C(F)C(F)(F)F)c1Cl (stereo not shown) [Example 31]
Efficacy ([11]; in vivo): 98% | Efficacy [12]: 100% | Efficacy [3]: 91% | Efficacy [6]: 100% | logP [13]: 3.71 | Efficacy [14]: 80%

Cn1nc(C(F)F)c(C(=O)Nc2ccccc2C2CC2C2CC2)c1F (stereo not shown) [Example 46]
Efficacy [1]: 100% | Efficacy ([11]; in vivo): 96% | Efficacy [12]: 97% | Efficacy [3]: 94% | Efficacy [4]: 85% | Efficacy [5]: 99% | Efficacy [6]: 100% | logP [13]: 3.67 | Efficacy [7]: 100% | Efficacy [8]: 100% | Efficacy [9]: 89% | Efficacy [10]: 100%

Cn1nc(C(F)F)c(C(=O)Nc2ccccc2C2CC3CCC2C3)c1F (stereo not shown) [Example 51]
Efficacy [1]: 100% | Efficacy [3]: 96% | Efficacy [4]: 93% | Efficacy [5]: 100% | Efficacy [6]: 95% | logP [13]: 3.78 | Efficacy [7]: 100% | Efficacy [8]: 71% | Efficacy [9]: 80% | Efficacy [10]: 100%

CC(C)C1C2CCC1c1c(NC(=O)c3c(C(F)F)nn(C)c3Cl)cccc12 (stereo not shown) [Example 67]
Efficacy [1]: 100% | Efficacy ([11]; in vivo): 96% | Efficacy [12]: 100% | Efficacy ([2]; 250 ppm): 71% | Efficacy ([2]; 500 ppm): 100% | Efficacy [5]: 99% | logP [13]: 4.55 | Efficacy [7]: 100% | Efficacy [8]: 100% | Efficacy [9]: 100% | Efficacy [10]: 100% | Efficacy [14]: 90%

Cn1nc(C(F)F)c(C(=O)Nc2ccc(F)cc2-c2ccc(Cl)cc2)c1Cl [Example 83]
Efficacy [1]: 100% | Efficacy [3]: 100% | Efficacy [4]: 94% | Efficacy [5]: 100% | Efficacy [6]: 94% | logP [13]: 3.76 | Efficacy [10]: 100%

Cn1nc(C(F)F)c(C(=O)Nc2ccc(F)cc2-c2ccc(Cl)cc2)c1F [Example 84]
Efficacy [1]: 99% | Efficacy [4]: 80% | Efficacy [5]: 99% | Efficacy [6]: 94% | logP [13]: 3.46 | Efficacy [10]: 100%

Cn1nc(C(F)F)c(C(=O)Nc2ccc(F)cc2-c2ccc(Cl)c(F)c2)c1Cl [Example 98]
Efficacy [1]: 100% | Efficacy [12]: 100% | Efficacy ([2]; 500 ppm): 86% | Efficacy [5]: 100% | logP [13]: 3.74 | Efficacy [7]: 100% | Efficacy [8]: 100% | Efficacy [10]: 100% | Efficacy [14]: 93%

Cn1nc(C(F)F)c(C(=O)Nc2ccccc2-c2ccc(Cl)c(F)c2)c1Cl [Example 99]
Efficacy [1]: 100% | Efficacy [12]: 100% | Efficacy ([2]; 500 ppm): 100% | Efficacy [5]: 97% | logP [13]: 3.71 | Efficacy [7]: 100% | Efficacy [8]: 100% | Efficacy [9]: 86% | Efficacy [10]: 100% | Efficacy [14]: 95%

Cn1nc(C(F)F)c(C(=O)Nc2ccccc2-c2cc(F)c(F)c(F)c2)c1Cl [Example 105]
Efficacy ([1]; listed as 105 from this invention): 100% | Efficacy [12]: 100% | Efficacy ([2]; 500 ppm): 100% | Efficacy [5]: 100% | logP [13]: 3.52 | Efficacy [7]: 100% | Efficacy [8]: 100% | Efficacy [10]: 100% | Efficacy [14]: 95%

Cn1nc(C(F)F)c(C(=O)Nc2ccc(F)cc2-c2ccc(Cl)c(Cl)c2)c1Cl [Example 117]
Efficacy [1]: 100% | Efficacy [4]: 98% | Efficacy [5]: 99% | logP [13]: 4.04 | Efficacy [7]: 100% | Efficacy [8]: 100% | Efficacy [10]: 100%

Cn1nc(C(F)F)c(C(=O)Nc2ccc(F)cc2-c2ccc(C(F)(F)F)cc2)c1F [Example 118]
Efficacy [1]: 95% | Efficacy ([2]; 500 ppm): 71% | Efficacy [3]: 100% | Efficacy [5]: 100% | Efficacy [6]: 100% | logP [13]: 3.60 | Efficacy [7]: 100% | Efficacy [8]: 100% | Efficacy [9]: 86% | Efficacy [10]: 100%

Cn1nc(C(F)F)c(C(=O)Nc2ccccc2-c2ccc(Br)cc2)c1F [Example 139]
Efficacy [1]: 100% | Efficacy [12]: 100% | Efficacy ([2]; 500 ppm): 93% | Efficacy [5]: 100% | logP [13]: 3.56 | Efficacy [7]: 100% | Efficacy [8]: 100% | Efficacy [9]: 100% | Efficacy [10]: 100% | Efficacy [14]: 95%

Cn1nc(C(F)F)c(C(=O)Nc2ccccc2-c2ccc(C(F)(F)F)c(F)c2)c1F [Example 149]
Efficacy [1]: 100% | Efficacy ([2]; 500 ppm): 93% | Efficacy [3]: 100% | Efficacy [5]: 99% | Efficacy [6]: 100% | logP [13]: 3.46 | Efficacy [7]: 100% | Efficacy [8]: 100% | Efficacy [9]: 100% | Efficacy [10]: 100%

Cn1nc(C(F)F)c(C(=O)Nc2ccccc2-c2ccc(Br)c(Cl)c2)c1Cl [Example 153]
Efficacy [1]: 100% | Efficacy ([2]; 500 ppm): 93% | Efficacy [3]: 100% | Efficacy [5]: 75% | Efficacy [6]: 90% | logP [13]: 4.19 | Efficacy [7]: 100% | Efficacy [8]: 100% | Efficacy [9]: 86% | Efficacy [10]: 95%

CC(C)OCc1cccc(NC(=O)c2c(C(F)F)nn(C)c2F)c1 [Example 166]
logP [13]: 2.72 | Efficacy [14]: 80%
